Laboratory results published in PubChem BioAssay AID330 (DTP/NCI, 2004).
“And” between values parts separate entries of the source, which are not always exact repeats. Identical values can stand only once. Toxic doses and inconclusive results are not listed. How the source made its calls: active means survival T/C of 150% or more; inactive means T/C below 125% in these data.

System: P388 leukemia ip, CD2F1 mice, survival T/C
Assay: NCI In Vivo Anticancer Drug Screen. Data for tumor model P388 Leukemia (intraperitoneal) in CD2F1 (CDF1) mice
Conditions: endpoint: median survival time, higher = longer survival
Summary of the method: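 Mice carrying the transplanted tumor received test compound or vehicle. Survival was recorded in each group, and the value is the treated-group measurement divided by that of the vehicle-treated control group.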

[1] = dose: 12.5 mg/kg/injection, schedule: Q01DX009 (ip), vehicle: saline with Tween-80
[2] = dose: 25.0 mg/kg/injection, schedule: Q01DX009 (ip), vehicle: saline with Tween-80
[3] = dose: 50.0 mg/kg/injection, schedule: Q01DX005 (ip), vehicle: Klucel (hydroxypropylcellulose) (HPC)
[4] = dose: 100.0 mg/kg/injection, schedule: Q01DX005 (ip), vehicle: Klucel (hydroxypropylcellulose) (HPC)
[5] = dose: 200.0 mg/kg/injection, schedule: Q01DX005 (ip), vehicle: Klucel (hydroxypropylcellulose) (HPC)
[6] = dose: 50.0 mg/kg/injection, schedule: Q01DX009 (ip), vehicle: saline with Tween-80

Measured: T/C

O=C(OCC(Cl)(Cl)Cl)N1C2C=CC(C3OC32)N1C(=O)OCC(Cl)(Cl)Cl (centres undefined)
inactive: dose: 50.0 mg/kg/injection, schedule: Q01DX009 (ip), vehicle: suspension in saline 88 % of control | dose: 100.0 mg/kg/injection, schedule: Q01DX009 (ip), vehicle: suspension in saline 90 % of control | dose: 200.0 mg/kg/injection, schedule: Q01DX009 (ip), vehicle: suspension in saline 98 % of control

O=[N+]([O-])c1cc(F)ccc1O
inactive: dose: 6.25 mg/kg/injection, schedule: Q01DX009 (ip), vehicle: saline with Tween-80 95 % of control | [1] 100 % of control | [2] 104 % of control

CCC(C)C(=O)OC1C(=O)OC2CC3C(C)=CC(=O)C(O)C3(C)C3C4(O)OCC23C1C(C)C4O (centres undefined)
inactive: dose: 2.0 mg/kg/injection, schedule: Q01DX009 (ip), vehicle: saline 96 % of control

CCN(CC)c1ccc2c(c1)Oc1cc(N(CC)CC)ccc1C21c2ccccc2C(=O)N1c1ccccc1
inactive: [3] 98 % of control | [4] 99 % of control | [5] 103 % of control

COP1(=O)CC(=O)C(C)(C)N1C (centres undefined)
inactive: [3] 101 % of control | [4] 107 % of control | [5] 111 % of control

N#CC1CPCCC1N (centres undefined)
inactive: [6] 102 % of control | dose: 100.0 mg/kg/injection, schedule: Q01DX009 (ip), vehicle: saline with Tween-80 106 % of control | dose: 200.0 mg/kg/injection, schedule: Q01DX009 (ip), vehicle: saline with Tween-80 114 % of control

O=[N+]([O-])c1ccc(CN2CCN(c3nccs3)CC2)cc1
inactive: dose: 50.0 mg/kg/injection, schedule: Q01DX009 (ip), vehicle: Klucel (hydroxypropylcellulose) (HPC) 101 % of control | dose: 100.0 mg/kg/injection, schedule: Q01DX009 (ip), vehicle: Klucel (hydroxypropylcellulose) (HPC) 105 % of control | dose: 200.0 mg/kg/injection, schedule: Q01DX009 (ip), vehicle: Klucel (hydroxypropylcellulose) (HPC) 105 % of control

CCN(CCO)CCNc1ccc(C)c2sc3cc(Cl)ccc3c(=O)c12
inactive: dose: 12.5 mg/kg/injection, schedule: Q01DX005 (ip), vehicle: Klucel (hydroxypropylcellulose) (HPC) 104 % of control | dose: 25.0 mg/kg/injection, schedule: Q01DX005 (ip), vehicle: Klucel (hydroxypropylcellulose) (HPC) 104 % of control | [3] 101 % of control and 102 % of control | [4] 111 % of control

COC(=O)C1=[N+]([O-])OC(C(=O)OC)C1c1ccc(F)cc1 (centres undefined)
inactive: dose: 60.0 mg/kg/injection, schedule: Q01DX005 (ip), vehicle: saline with Tween-80 93 % of control | dose: 120.0 mg/kg/injection, schedule: Q01DX005 (ip), vehicle: saline with Tween-80 90 % of control | dose: 240.0 mg/kg/injection, schedule: Q01DX005 (ip), vehicle: saline with Tween-80 94 % of control

S=C(S)n1nc(-c2ccccc2)c(N=Nc2ccc(Br)cc2)c1-c1ccccc1
inactive: dose: 100.0 mg/kg/injection, schedule: Q04DX002 (ip), vehicle: Klucel (hydroxypropylcellulose) (HPC) 107 % of control | dose: 200.0 mg/kg/injection, schedule: Q04DX002 (ip), vehicle: Klucel (hydroxypropylcellulose) (HPC) 110 % of control | dose: 400.0 mg/kg/injection, schedule: Q04DX002 (ip), vehicle: Klucel (hydroxypropylcellulose) (HPC) 113 % of control

CCCCCCCCCCCCCCCC[N+]1([O-])CCOCC1
inactive: [1] 105 % of control | [2] 102 % of control | [6] 102 % of control

Cc1cc(O)c2c(c1O)C(=O)C13C(=C2O)C(=O)C2C(O)C1C1C(O)C3C(=O)C3=C(O)c4c(O)cc(C)c(O)c4C(=O)C321 (centres undefined)
inactive: dose: 0.75 mg/kg/injection, schedule: Q01DX005 (ip), vehicle: saline with Tween-80 100 % of control and 106 % of control | dose: 0.78 mg/kg/injection, schedule: Q01DX009 (ip), vehicle: saline with Tween-80 116 % of control | dose: 1.5 mg/kg/injection, schedule: Q01DX005 (ip), vehicle: saline with Tween-80 111 % of control and 115 % of control | dose: 3.0 mg/kg/injection, schedule: Q01DX005 (ip), vehicle: saline with Tween-80 115 % of control

COC1=CC(C(=O)O)C=C(OC)C1
inactive: dose: 50.0 mg/kg/injection, schedule: Q01DX005 (ip), vehicle: saline with Tween-80 102 % of control | dose: 100.0 mg/kg/injection, schedule: Q01DX005 (ip), vehicle: saline with Tween-80 104 % of control | dose: 200.0 mg/kg/injection, schedule: Q01DX005 (ip), vehicle: saline with Tween-80 89 % of control
